Data published in patent publication US20190111016A1, “METHODS OF TREATING MUSCLE AND LIVER DISORDERS” (The Regents of the University of California, priority 2016, published 2019).
Structures can show the parent of a compound that is named as a salt.

Experiments:
[1] = system: MS patients; test: qPCR of mitochondrial complex subunit expression in PBMCs of MS patients before and after DMF treatment; format: in vivo, human
From the text: (§1) The local Ethics Committee of the University Federico II of Naples, approved the study. Patients were recruited from the Multiple Sclerosis Center of the Federico II University of Naples. All patients gave written informed consent before any activity linked to the study was started. Healthy controls were recruited at the clinic through students and site personnel. The study included 12 MS patients and 11 healthy individuals. Samples were obtained on the day before and after 3 months of continuous DMF treatment. Whole blood was collected in EDTA containing Leucosep® tubes (Greiner bio-one, Frickenhausen, Germany) and frozen at −80° C. until analysis. PBMCs were isolated from 30 mL of EDTA anticoagulated whole blood for RNA extraction.
(§2) Total RNA was extracted from human fibroblast cells and PBMCs from whole blood using RNeasy plus mini kit (Qiagen, Valencia, Calif.) and RIboPure RNA Purification Kit (ThermoFisher Scientific, Waltham, Mass., USA), respectively following manufacturers instruction. RNA quantity and quality was measured by a NanoDrop 2000c Spectrophotometer (Thermo Scientific, Waltham, Mass., USA).
(§3) cDNA was synthesized from mRNA with iScript cDNA Synthesis Kit (Bio-Rad Laboratories, Hercules, Calif., USA) per manufacturer's instruction in a C1000 Touch Thermal Cycler (Bio-Rad Laboratories, Hercules, Calif., USA). A SensiFAST SYBR No-ROX Kit (Bioline, Taunton, Mass., USA) was used to perform qPCR on the synthesized cDNA in a Roche Lightcycler 480 (Roche Diagnostics, Indianapolis, Ind., USA). The second derivative of the amplification curve was used to determine the cycle threshold, and the data were analyzed by a delta delta CT calculation.
DMF is a FDA approved drug, currently being used to treat adult patients with relapsing form of MS. To confirm whether DMF is contributing to mitochondrial biogenesis when given to human patients, we used qPCR to study mitochondrial DNA copy number and mitochondrial complex subunit expression in peripheral blood lymphocytes isolated from 11 MS patients at baseline and those same patients 3 months after DMF treatment, and 10 controls. We see significant increase in mitochondrial DNA copy number by 71% (p<0.0075, n=11) in MS patients' treated with DMF for 3 months compared to its own baseline [FIG. 4A].

[2] = system: HCAR2; test: DMF treatment of HCAR2 siRNA knockdown human fibroblasts, qPCR; format: cell-based; conditions: HCAR2 siRNA 48 hours, then DMF 48 hours
Description: (§4) Fibroblast cells were seeded in six-well plates at 0.2×10^6 cells per well and transfected with negative control siRNA (cat. 12935300, Thermo-Fisher, Waltham, Mass., USA), pooled Nrf2 siRNA (cat. HSS107130, HSS181505, HSS181506, Thermo-Fisher, Waltham, Mass., USA) or pooled HCAR2 siRNA (cat. L-006688-02-0005, Dharmacon, Lafayette, Colo., USA) using Lipofectamine RNAiMAX following manufacturer's instruction. After a 48-hour incubation, subsequent drug treatment was conducted with the cells.
cDNA was synthesized from mRNA with iScript cDNA Synthesis Kit (Bio-Rad Laboratories, Hercules, Calif., USA) per manufacturer's instruction in a C1000 Touch Thermal Cycler (Bio-Rad Laboratories, Hercules, Calif., USA). […] The second derivative of the amplification curve was used to determine the cycle threshold, and the data were analyzed by a delta delta CT calculation.
(§5) DMF is known to mediate antioxidant cellular defense by Nrf2 activation, and it suppresses inflammatory signaling by binding to and activating HCAR2 (11, 15). To further understand the Nrf2 and HCAR2 dependent effects of DMF on mitochondrial biogenesis, we analyzed changes in mitochondrial proliferation in Nrf2 siRNA knockdown and HCAR2 siRNA knockdown fibroblasts.

[3] = system: C57BL/6 wild-type mice; test: mtDNA copy number (mt-Nd1/Cftr) by qPCR in tissues of DMF-dosed mice; format: in vivo, mouse; conditions: 10 mg/kg DMF i.p. daily, two weeks
Description: (§6) C57BL/6 wild-type mice were housed in a vivarium maintained at 22° C.-24° C. and 40%-60% relative humidity with a 12-hour light/12-hour dark cycle. All experimental procedures were approved by the University of California Institutional Animal Care and Use Committee.
(§7) The stock dimethyl fumarate solution was made by dissolving 50 mg/ml of DMF into DMSO. Prior to injection, 0.5 mg/ml of working DMF solution (1:100 dilution) was made by diluting the stock solution into phosphate-buffered saline with 5% Tween-20 and 5% Polyethylene glycol (Sigma-Aldrich, St. Louis, Mo., USA). The mice were injected intraperitoneally every day for 14 days with 10 mg/kg of DMF.
(§8) The mice were euthanized with CO2 followed by cervical dislocation and tissues were immediately removed then flash frozen with liquid nitrogen. Samples were stored in −80° C. until utilized for experiments.
(§9) Total DNA was extracted from human fibroblast and mouse tissues using DNeasy plus mini kit and DNeasy blood & tissue kit (Qiagen, Valencia, Calif., USA), respectively, following manufacturer's instruction. DNA was quantified by a NanoDrop 2000c Spectrophotometer (Thermo Scientific, Waltham, Mass., USA).
as §3
(§10) To understand whether the DMF-dependent mitochondrial biogenesis is only applicable to the human fibroblast cells, we examined the effects of DMF on wild type C57BL/6 mice. The mice were dosed with 10 mg/kg DMF daily, and skeletal muscle, cerebellum, liver, and heart tissues were collected after two weeks of treatment We utilized qPCR to analyze, mtDNA copy number as ratio of mt-Nd1 to Cftr and mitochondrial complex expression, in these tissues.

[4] = system: healthy human fibroblast cell line AG09429; test: mtDNA copy number (mtDNA/nDNA, MT-TL1/B2M) by qPCR in DMF-treated human fibroblasts; format: cell-based; conditions: 48 hours
Description: (§11) The healthy human fibroblast cell line AG09429 (Coriell Institute, Camden, N.J., USA) was maintained at 37° C. in a humidified atmosphere with 5% CO2. DMEM (Corning, Inc., Corning, N.Y., USA) supplemented with 10% fetal bovine serum (JR-Scientific, Woodland, Calif., USA), 1× Penicillin-Streptomycin Solution (Corning, Inc., Corning, N.Y., USA) was used as growth media. Media was changed every two days.
(§12) The human fibroblasts were plated in a 12-well format at 0.1×10^6 cells per well. The cells were incubated with 0.1% DMSO as vehicle control or 3-30 μM of dimethyl fumarate (Sigma-Aldrich, St. Louis, Mo., USA) dissolved in DMSO. Total RNA and DNA were extracted following a 48-hour incubation period.
as §9, §3
Healthy human fibroblast cells were treated with 0.1% DMSO (vehicle), 3 μM, 10 μM or 30 μM DMF for 48 hours. Mitochondrial DNA (mtDNA) copy number was analyzed from total DNA isolates by measuring the ratio of mitochondrial to nuclear DNA (mtDNA/nDNA). Primers used to amplify mitochondrial DNA and nuclear DNA by qPCR were mitochondrially-encoded tRNA leucine 1 (MT-TL1) and Beta 2 microglobulin (B2M) respectively. […]

[5] = system: Nrf2; test: DMF treatment of Nrf2 siRNA knockdown human fibroblasts, qPCR; format: cell-based; conditions: then DMF 48 hours
Description: as §4, §3, §5

[6] = system: healthy human fibroblast cell line AG09429; test: qPCR of TFAM and mitochondrial complex subunit mRNA in DMF-treated human fibroblasts; format: cell-based; conditions: for average induction of all the mitochondrial complexes (subunit mRNA) compared to vehicle / expression of mitochondrial biogenesis marker TFAM compared to vehicle control: 48 hours
Description: as §11, §12, §2, §3
To elucidate whether increased mitochondrial proliferation affects the abundance of the ETC mitochondrial complexes, qPCR analysis was performed to quantify the mRNA expression of numerous complex subunits: complex 1 subunits MT-ND2 and MT-ND6, complex 2 subunits SDHA and SDHB, […], and complex 5 subunits ATP5B and MT-ATP6 [Table 1]. […] Taken together, human fibroblast cells increased mitochondrial biogenesis measured by mtDNA copy number, mitochondrial proliferator marker TFAM expression and mitochondrial complex expression.

[7] = system: C57BL/6 wild-type mice; test: qPCR of mitochondrial complex subunit expression in tissues of DMF-dosed mice; format: in vivo, mouse; conditions: 10 mg/kg DMF i.p. daily, two weeks
Description: as §6, §7, §8, §3, §10

[8] = system: MS patients; test: mtDNA copy number (MT-TL1/B2M) by qPCR in PBMCs of MS patients before and after DMF treatment; format: in vivo, human; conditions: 3 months DMF treatment
From the text: as §1, §3
DMF is a FDA approved drug, currently being used to treat adult patients with relapsing form of MS. […]

[9] = system: human fibroblasts; test: Oxygen consumption rate in DMF-treated fibroblasts by Seahorse XF Analyzer; format: cell-based; conditions: 48 hours
Description: Fibroblast cell lines were seeded at a density of 60,000 cells/well in 200 μL of culture medium in a 24-well seahorse tissue culture plate (Seahorse Biosciences, Billerica, Mass., USA). Following a 24-hour incubation, the media was replaced and incubated with 200 μL of 0.1% DMSO or 3 μM, 10 μM and 30 μM dimethyl fumarate in 0.1% DMSO. Prior to reading the oxygen consumption, the medium was changed to unbuffered DMEM without phenol red (Corning, Inc., Corning, N.Y., USA), 10% fetal bovine serum (JR-Scientific, Woodland, Calif., USA), […] glutamax, […] sodium pyruvate, 25 mM glucose (Invitrogen, Waltham, Mass., USA) and was adjusted to pH 7.4. Cells were pre-equilibrated for 20 min; oxygen consumption rate (OCR) and proton production rate (PPR) were recorded with the Seahorse XF-24 after sequential addition of oligomycin (1 ug/ml), FCCP (10 μM) and a combination of antimycin A (1 μM) and rotenone (1 μM) (Sigma-Aldrich, St. Louis, Mo., USA). Total protein in each well was measured and protein concentration was used to normalize the readings.
To elucidate the bioenergetic effects of DMF-dependent increases in mitochondrial copy number and mitochondrial complex expression in human fibroblasts, oxygen consumption rate (OCR) was measured. Human fibroblasts were treated with 0.1% DMSO, 3 μM, 10 μM or 30 μM DMF for 48 hours, and oxygen consumption rate (OCR) was sequentially measured in the presence of oligomycin (complex 5 inhibitor), FCCP (mitochondrial uncoupler), and rotenone/antimycin A (Complex 1/3 inhibitor) [FIG. 2A]. […] Consistent with the idea that DMF increases mitochondrial copy number and mitochondrial complex expression; the effects of DMF are nullified in the presence of oligomycin and rotenone/antimycin A, which inhibits the mitochondrial electron transport chain that is responsible for mitochondrial oxygen consumption.

[10] = MS patients, 3 months DMF treatment

COC(=O)/C=C/C(=O)OC [DMF, dimethyl fumarate]
recovery in average mitochondrial gene expression (mt-ND6, mt-CYB, mt-CO2, mt-ATP6) ([1]; MS patients following 3 months DMF treatment, relative to healthy individuals): 88% | increase in mt-ATP6 (complex 5) expression normalized to own baseline [1, 10]: 3.74 fold | increase in mt-CO2 (complex 4) expression normalized to own baseline [1, 10]: 2.34 fold | increase in mt-CYB (complex 3) expression normalized to own baseline [1, 10]: 2.87 fold | increase in mt-ND6 (complex 1) expression normalized to own baseline [1, 10]: 3.13 fold | inducibility of NRF1, mtDNA copy number and mitochondrial complex 2-5 subunit gene expression, siHCAR2+DMF compared to siCTL+DMF [2]: no significant difference | inducibility of complex 1 subunit MT-ND2 by DMF when HCAR2 is knocked down [2]: uninducible | increase in mtDNA copy number ([3]; cerebellum): 1.29 fold | change in mtDNA copy number ([3]; heart): no significant change | increase in mtDNA copy number ([3]; liver): 1.34 fold | increase in mtDNA copy number ([3]; skeletal muscle): 1.45 fold | change in mtDNA copy number compared to vehicle control ([4]; 3 μM DMF): no changes | increase in mtDNA copy number compared to vehicle control ([4]; 10 μM DMF): 1.51 fold | increase in mtDNA copy number compared to vehicle control ([4]; 30 μM DMF): 1.75 fold | expression of Nrf2, NQO1 and mtDNA copy number, siNrf2+DMF compared to siNrf2 cells ([5]; Nrf2 siRNA 48 hours): significantly increases | induction of TFAM and NRF1 in siNrf2+DMF ([5]; Nrf2 siRNA 48 hours): no significant induction | mitochondrial complex expression in siNrf2+DMF cells (exception: complex 4) ([5]; Nrf2 siRNA 48 hours): general reduction | Nrf2, NQO1, TFAM, NRF1 and mtDNA copy number, siCNT+DMF compared to siCNT ([5]; control siRNA 48 hours): significant induction | average induction of all the mitochondrial complexes (subunit mRNA) compared to vehicle ([6]; 10 μM DMF): 1.42 fold | expression of mitochondrial biogenesis marker TFAM compared to vehicle control ([6]; 10 μM DMF): increased | average induction of all the mitochondrial complexes (subunit mRNA) compared to vehicle ([6]; 30 μM DMF): 2.65 fold | expression of mitochondrial biogenesis marker TFAM compared to vehicle control ([6]; 30 μM DMF): increased | expression of complex 5 subunits in response to DMF compared to other complex subunits ([6]; DMF 48 hours): less increased | increase in mt-Atp6 (complex 5) expression ([7]; cerebellar tissue): 1.82 fold | increase in mt-Co1 (complex 4) expression ([7]; cerebellar tissue): 1.92 fold | induction of mitochondrial complexes ([7]; liver or heart tissues): more minor | increase in mt-Atp6 (complex 5) expression ([7]; skeletal muscle): 1.77 fold | increase in mt-Co1 (complex 4) expression ([7]; skeletal muscle): 2.38 fold | increase in mt-Nd2 expression ([7]; skeletal muscle): 4.68 fold | mitochondrial DNA copy number compared to healthy control group [8]: back to healthy control level | increase in mitochondrial DNA copy number compared to own baseline ([8]; peripheral blood lymphocytes): 71% | maximal OCR after FCCP injection, relative increase compared to vehicle control ([9]; 3 μM DMF): 1.20 fold | basal OCR, relative increase compared to vehicle control ([9]; 10 μM DMF): 1.59 fold | maximal OCR after FCCP injection, relative increase compared to vehicle control ([9]; 10 μM DMF): 1.35 fold | basal OCR, relative increase compared to vehicle control ([9]; 30 μM DMF): 1.66 fold | maximal OCR after FCCP injection, relative increase compared to vehicle control ([9]; 30 μM DMF): 1.47 fold | OCR in the presence of oligomycin and rotenone/antimycin A, DMF groups vs vehicle control ([9]; 3, 10, 30 μM DMF): not significantly different
